According to BindingDB's records for doi:10.1021/jm960509y (Abbott Laboratories, 1997):
*1 amine or outer side, *2 acyl side, *3 side chain or, on linkers, in order; H or OH if unused. Where a SMILES comes first, the peptide text is derived from it. Side-chain parts run from the residue outwards. [ ]: non-standard residue; d: D form. The star is where a group is joined. ξ: configuration not given here. NH(4-MeO-phenyl) = COc1ccc(N*)cc1; ξW = NC(Cc1c[nH]c2ccccc12)C(=O)O; pNA = O=[N+]([O-])c1ccc(N*)cc1; X2 = O=[N+]([O-])c1cccc(N*)c1; NH(3-MeOPh) = COc1cccc(N*)c1; 3Abz = Nc1cccc(C(=O)O)c1; ξF = NC(Cc1ccccc1)C(=O)O; X1 = CC(=O)c1ccc(N*)cc1; ξD = NC(CC(=O)O)C(=O)O; Boc = CC(C)(C)OC(=O)*; CO = O=C([*:1])[*:2]

Biological target: Gastrin/cholecystokinin type B receptor (Cavia porcellus)
Experiment: Displacement of [125I]- BH-CCK-8 from Cholecystokinin type B receptor of guinea pig cortex

| Structure (SMILES) | IC50 |
| --- | --- |
| COC(=O)c1cccc(NC(=O)NCCCC[C@H](NC(=O)C(Cc2c[nH]c3ccccc23)NC(=O)OC(C)(C)C)C(=O)NC(CC(=O)O)C(=O)NC(Cc2ccccc2)C(N)=O)c1 (some centres not stated) (Boc-[ξW]K([CO-3Abz-OMe])[ξD][ξF]-NH2) | 1000 nM |
| COc1ccc(NC(=O)NCCCC[C@H](NC(=O)C(Cc2c[nH]c3ccccc23)NC(=O)OC(C)(C)C)C(=O)NC(CC(=O)O)C(=O)NC(Cc2ccccc2)C(N)=O)cc1 (stereo partly drawn) [3-{(S)-2-[2-tert-Butoxycarbonylamino-3-(1H-indol-3-yl)-propionylamino]-6-[3-(4-methoxy-phenyl)-ureido]-hexanoylamino}-N-(1-carbamoyl-2-phenyl-ethyl)-succinamic acid] (Boc-[ξW]K([CO-NH(4-MeO-phenyl)])[ξD][ξF]-NH2) | 750 nM |
| CC(C)(C)OC(=O)N[C@@H](Cc1c[nH]c2ccccc12)C(=O)N[C@@H](CCCCNC(=O)Nc1cccc([N+](=O)[O-])c1)C(=O)N[C@@H](CC(=O)O)C(=O)N[C@@H](Cc1ccccc1)C(N)=O [3-{(S)-2-[2-tert-Butoxycarbonylamino-3-(1H-indol-3-yl)-propionylamino]-6-[3-(3-nitro-phenyl)-ureido]-hexanoylamino}-N-(1-carbamoyl-2-phenyl-ethyl)-succinamic acid] (Boc-WK([CO-X2])DF-NH2) | 1200 nM |
| CC(C)(C)OC(=O)NC(Cc1c[nH]c2ccccc12)C(=O)N[C@@H](CCCCNC(=O)Nc1ccc([N+](=O)[O-])cc1)C(=O)NC(CC(=O)O)C(=O)NC(Cc1ccccc1)C(N)=O (stereo partly drawn) [3-{(S)-2-[2-tert-Butoxycarbonylamino-3-(1H-indol-3-yl)-propionylamino]-6-[3-(4-nitro-phenyl)-ureido]-hexanoylamino}-N-(1-carbamoyl-2-phenyl-ethyl)-succinamic acid] (Boc-[ξW]K([CO-pNA])[ξD][ξF]-NH2) | 31 nM |
| COc1cccc(NC(=O)NCCCC[C@H](NC(=O)C(Cc2c[nH]c3ccccc23)NC(=O)OC(C)(C)C)C(=O)NC(CC(=O)O)C(=O)NC(Cc2ccccc2)C(N)=O)c1 (stereo partly drawn) [3-{(S)-2-[2-tert-Butoxycarbonylamino-3-(1H-indol-3-yl)-propionylamino]-6-[3-(3-methoxy-phenyl)-ureido]-hexanoylamino}-N-(1-carbamoyl-2-phenyl-ethyl)-succinamic acid] (Boc-[ξW]K([CO-NH(3-MeOPh)])[ξD][ξF]-NH2) | 1400 nM |
| CC(=O)c1ccc(NC(=O)NCCCC[C@H](NC(=O)C(Cc2c[nH]c3ccccc23)NC(=O)OC(C)(C)C)C(=O)NC(CC(=O)O)C(=O)NC(Cc2ccccc2)C(N)=O)cc1 (stereo partly drawn) [3-{(S)-6-[3-(4-Acetyl-phenyl)-ureido]-2-[2-tert-butoxycarbonylamino-3-(1H-indol-3-yl)-propionylamino]-hexanoylamino}-N-(1-carbamoyl-2-phenyl-ethyl)-succinamic acid] (Boc-[ξW]K([CO-X1])[ξD][ξF]-NH2) | 12 nM |

Biological target: Gastrin/cholecystokinin type B receptor (Cavia porcellus)
Experiment: Inhibitory activity against Cholecystokinin type B receptor using [125I]- BH-CCK-8 as radioligand in cortex tissue of guinea pig

| Structure (SMILES) | IC50 |
| --- | --- |
| CSCCC(NC(=O)NC(CC(=O)O)C(=O)NC(Cc1ccccc1)C(N)=O)C(=O)NC(=O)C(Cc1c[nH]c2ccccc12)NC(=O)OC(C)(C)C (configuration not stated) [3-(3-{1-[2-tert-Butoxycarbonylamino-3-(1H-indol-3-yl)-propionylcarbamoyl]-3-methylsulfanyl-propyl}-ureido)-N-(1-carbamoyl-2-phenyl-ethyl)-succinamic acid] | 25 nM |
